Measured values from ChEMBL document CHEMBL1148430, “Synthesis of novel 2-nitroimidazole-tethered tricyclic quinolines, bearing a second heteroatom, and their in vitro evaluation as hypoxia-selective cytotoxins and radiosensitizers” (Bioorg Med Chem Lett, 2004).

Legend:
[1] = Ratio (HS) of CT50 values in aerobic condition to hypoxic condition (in N2 presence) given as CT50(A)/CT50(H); format: functional
[2] = Partition coefficient in octanol/water; format: physicochemical
V79 [3] = test: Cytotoxicity of compound was measured against suspended V79 cells under hypoxic conditions in clonogenic assay; format: functional, Cricetulus griseus
V79 [4] = test: Cytotoxicity of compound was measured against suspended V79 cells under aerobic conditions in clonogenic assay; format: functional, Cricetulus griseus
[5] = Concentration required to reduce fluorescence in ethidium bromide displacement assay using EB-DNA complex
[6] = In vitro therapeutic index of compound was measured inV79 cells; format: cell-based, Cricetulus griseus; settings: chinese hamster, V79 cells; read-out: T.I.

Structure (SMILES) | Ratio [1] | PC [2] | CT50 (V79 [3]) | CT50 (V79 [4]) | C50 [5] | selectivity ratio [6]
Cl.O=[N+]([O-])c1nccn1CCCNc1c2ccccc2nc2ccccc12 | 5.5 | 0.07 | 15 µM | 84 µM | 9 µM | 11
Cl.O=[N+]([O-])c1nccn1CCCNc1c2c(nc3ccccc13)CCCC2 | 11 | 0.14 | 33 µM | 360 µM | 58 µM | 20
Cl.O=[N+]([O-])c1nccn1CCCNc1c2c(nc3ccccc13)CCSC2 | 9 | 0.4 | 68 µM | 580 µM | 58 µM | 15
CN1CCc2nc3ccccc3c(NCCCn3ccnc3[N+](=O)[O-])c2C1.Cl | 2.2 | 0.41 |  | 426 µM | 45 µM | 7
